Values of other authors in US20120016347A1, “Seroma Control for Surgical Patients” (priority 2010, published 2012).

Tested on: pleural effusions
Conditions: Patz (Chest, 1998)

Compound	Success rate in completely or partially controlling pleural effusions [%]
bleomycin	72
C[C@H]1c2cccc(O)c2C(O)=C2C(=O)[C@]3(O)C(O)=C(C(N)=O)C(=O)[C@@H](N(C)C)[C@@H]3[C@@H](O)[C@@H]21 [doxyclycline, doxycycline]	79
